Experimental data reported in the NIST ThermoML archive (doi:10.1016/j.tca.2012.06.011).
Values joined by “and” are separate entries in the source; they are usually repeats but may differ in a detail not shown here. Equal entries are not always repeated. Numbers after ± are expanded uncertainties.

Key:
[1] = 101 kPa, Liquid; for viscosity: Capillary tube (Ostwald / Ubbelohde) method; for mass density: Vibrating tube method
[2] = xn = mol fraction of the nth substance listed; conditions: 101 kPa, Liquid; for viscosity: Capillary tube (Ostwald / Ubbelohde) method; for mass density: Vibrating tube method

Compound	viscosity ([1]; 298.15 K) [mPa·s]	mass density ([1]; 298.15 K) [kg/m3]	viscosity ([1]; 303.15 K) [mPa·s]	mass density ([1]; 303.15 K) [kg/m3]	viscosity ([1]; 308.15 K) [mPa·s]	mass density ([1]; 308.15 K)	viscosity ([1]; 313.15 K) [mPa·s]	mass density ([1]; 313.15 K) [kg/m3]	viscosity ([1]; 323.15 K) [mPa·s]	mass density ([1]; 323.15 K) [kg/m3]	further results
CCN(CC)CC [triethylamine]	0.366 ± 0.005	724.21 ± 0.25	0.34 ± 0.005	719.54 ± 0.25	0.334 ± 0.004	714.84 ± 0.25 kg/m3	0.331 ± 0.004	710.1 ± 0.25	0.298 ± 0.004	700.71 ± 0.25	
C1C[C@@H]2[C@H]3CC[C@H](C3)[C@@H]2C1 [exo-tetrahydrodicyclopentadiene]	2.8 ± 0.043	931.29 ± 0.76	2.549 ± 0.039	927.38 ± 0.75	2.332 ± 0.036	923.45 ± 0.75 kg/m3 and 923.46 ± 0.75 kg/m3	2.124 ± 0.033	919.54 ± 0.75	1.811 ± 0.028	911.7 ± 0.74	
CN1CCNCC1 [N-methylpiperazine]	1.854 ± 0.024	899.28 ± 0.13	1.583 ± 0.02	894.9 ± 0.13	1.409 ± 0.017	890.5 ± 0.13 kg/m3	1.258 ± 0.015	886.07 ± 0.13	1.064 ± 0.013	877.28 ± 0.13	
CCN(CC)CC [triethylamine] + C1C[C@@H]2[C@H]3CC[C@H](C3)[C@@H]2C1											viscosity ([2]; 298.15 K, x1 = 1): 0.366 ± 0.005 mPa·s; mass density ([2]; 298.15 K, x1 = 1): 724.21 ± 0.25 kg/m3; viscosity ([2]; 303.15 K, x1 = 1): 0.34 ± 0.005 mPa·s; mass density ([2]; 303.15 K, x1 = 1): 719.54 ± 0.25 kg/m3; viscosity ([2]; 308.15 K, x1 = 1): 0.334 ± 0.004 mPa·s; mass density ([2]; 308.15 K, x1 = 1): 714.84 ± 0.25 kg/m3; viscosity ([2]; 313.15 K, x1 = 1): 0.331 ± 0.004 mPa·s; mass density ([2]; 313.15 K, x1 = 1): 710.1 ± 0.25 kg/m3; viscosity ([2]; 323.15 K, x1 = 1): 0.298 ± 0.004 mPa·s; mass density ([2]; 323.15 K, x1 = 1): 700.71 ± 0.25 kg/m3
C1C[C@@H]2[C@H]3CC[C@H](C3)[C@@H]2C1 [exo-tetrahydrodicyclopentadiene] + CN1CCNCC1											viscosity ([2]; 298.15 K, x2 = 0): 2.8 ± 0.043 mPa·s; mass density ([2]; 298.15 K, x2 = 0): 931.29 ± 0.76 kg/m3; viscosity ([2]; 303.15 K, x2 = 0): 2.549 ± 0.039 mPa·s; mass density ([2]; 303.15 K, x2 = 0): 927.38 ± 0.75 kg/m3; viscosity ([2]; 308.15 K, x2 = 0): 2.332 ± 0.036 mPa·s; mass density ([2]; 308.15 K, x2 = 0): 923.45 ± 0.75 kg/m3; viscosity ([2]; 313.15 K, x2 = 0): 2.124 ± 0.033 mPa·s; mass density ([2]; 313.15 K, x2 = 0): 919.54 ± 0.75 kg/m3; viscosity ([2]; 323.15 K, x2 = 0): 1.811 ± 0.028 mPa·s; mass density ([2]; 323.15 K, x2 = 0): 911.7 ± 0.74 kg/m3
